Test results published in patent US20230330060A1, “COMPOUNDS FOR TREATMENT OF HEART FAILURE” (Sulfateq B.V., priority 2020, published 2023).

What was measured:
[1] = tested on: doxorubicin-induced heart failure; test: Cardiac oxidative stress: lipid peroxidation (TBARS); type: in vivo, rat; conditions: doxorubicin rats; SUL-150 in prophylaxis or therapeutic regime
Method: (§1) The SUL-150 solution was sprayed homogeneously over standard food pellets (1.25 kg). […] Food pellets were freshly prepared weekly. With the approximation of 200 mg·kg^−1 SUL-150 in the food pellets and a daily dietary intake of 25 gram for a 350 gram rat, daily dosing of SUL-150 approximates 5 mg·day^−1. Male outbred Wistar rats of 250-300 grams (10-12 weeks old) were kept on a 12 h light/dark cycle and received a standard diet with distilled water ad libitum. Thirty rats were administered with doxorubicin (2 mg·kg^−1) weekly via intraperitoneal injection for 9 consecutive weeks and were left either untreated (standard chow diet, 10 rats), or received a diet supplemented with SUL-150 as prophylaxis (prior to the 1st doxorubicin administration, 10 rats) or therapy (starting after the 6th doxorubicin administration, 10 rats). Sham control rats (8 rats) were administered with saline weekly via intraperitoneal injection for 9 consecutive weeks and received a standard diet. All rats were subjected to cardiac function assessment 12 weeks after the first doxorubicin administration. Cardiac tissue samples were homogenized in ddH2O using a TissueRuptor II (Qiagen, Hilden, Germany) followed by sonication at 20 kHz for 3×1 min (Sonopuls 2000, Bandelin, Berlin, Germany) and centrifugation at 14000 g to pellet insoluble proteins. […]

[2] = tested on: doxorubicin-induced heart failure; test: Cardiac radical scavenging activity (ABTS-radical decolorization); type: in vivo, rat; conditions: doxorubicin rats; prophylactic or therapeutic administration of SUL-150
Method: as §1

[3] = tested on: mitochondrial complex IV (cytochrome c oxidase); test: Respiratory complex IV activity in mitochondria isolated from H9C2 cardiomyoblasts; type: cell-based, rat
Method: H9C2 cardiomyoblasts were exposed to 1 μM DOX in the presence or absence of 1 μM SUL-150 under standard cell culture conditions for 24 h. Mitochondria were isolated using density gradient centrifugation using the MitoCheck® Mitochondrial Isolation Kit (Cayman Chemical #701010, Ann Arbor, MI) according to manufacturer's instructions and assessed for the activity of mitochondrial complex IV (cytochrome c oxidase) by measuring the rate of oxidation of cytochrome c, which is reflected by an […] in absorbance at 550 nm (Cayman Chemical #700990, Ann Arbor, MI).

[4] = tested on: doxorubicin-induced heart failure; test: Cardiac function assessment by PV-loop analysis in rats with doxorubicin-induced heart failure; type: in vivo, rat; conditions: for ESP (End-systolic pressure): doxorubicin 2 mg/kg weekly i.p. x9, mean±S.D.; for ESP (End-systolic pressure) / Contractility efficiency / EDP (end-diastolic pressure) / EDV (end-diastolic volume) / ESV (end-systolic volume) / Ea (Arterial elastance) / Ees (ESPVR) end-systolic elastance / Emax (EDPVR) maximal elastance / PRSW (preload recruitable stroke work) / SV (stroke volume) / Tau (time constant of LV pressure decay) / dP/dTmax / dP/dTmin: 12 weeks; for Contractility efficiency / EDP (end-diastolic pressure) / EDV (end-diastolic volume) / ESV (end-systolic volume) / Ea (Arterial elastance) / Ees (ESPVR) end-systolic elastance / Emax (EDPVR) maximal elastance / PRSW (preload recruitable stroke work) / SV (stroke volume) / Tau (time constant of LV pressure decay) / dP/dTmax / dP/dTmin / Cardiac function (heart rate, ejection fraction, stroke work, cardiac output), FIG. 1: doxorubicin rats; for Contractility efficiency / EDP (end-diastolic pressure) / EDV (end-diastolic volume) / ESV (end-systolic volume) / Ea (Arterial elastance) / Ees (ESPVR) end-systolic elastance / Emax (EDPVR) maximal elastance / PRSW (preload recruitable stroke work) / SV (stroke volume) / Tau (time constant of LV pressure decay) / dP/dTmax / dP/dTmin: SUL-150 diet; for Cardiac function (heart rate, ejection fraction, stroke work, cardiac output), FIG. 1: p<0.05 vs doxorubicin group
Method: The effectiveness of the compounds according to the invention for treatment or prophylaxis of HFrEF was tested in vivo in rats. Doxorubicin, an anthracycline antibiotic used in cancer chemotherapy, was employed to induce heart failure with reduced ejection fraction in preclinical rat models (Christiansen et al. (2006) Eur. J. Cardiothorac. Surg. 30:611-616; Ertunc et al. (2009) Pharmacology 84:240-248; Hayward et al. (2007) J. Am. Ass. Lab. Animal Sci. 46:20-32). […] The SUL-150 solution was sprayed homogeneously over standard food pellets (1.25 kg). […] Food pellets were freshly prepared weekly. With the approximation of 200 mg/kg SUL-150 in the food pellets and a daily dietary intake of 25 gram for a 350 gram rat, daily dosing of SUL-150 approximates 5 mg per day. Male outbred Wistar rats of 250-300 grams (10-12 weeks old) were kept on a 12h light/dark cycle and received a standard diet with distilled water ad libitum. Thirty rats were administered with doxorubicin (2 mg/kg) weekly via intraperitoneal injection for 9 consecutive weeks and were left either untreated (standard chow diet, 10 rats), or received a diet supplemented with SUL-150 as prophylaxis (prior to the 1st doxorubicin administration, 10 rats) or therapy (starting after the 6th doxorubicin administration, 10 rats). Sham control rats (8 rats) were administered with saline weekly via intraperitoneal injection for 9 consecutive weeks and received a standard diet. All rats were subjected to cardiac function assessment 12 weeks after the first doxorubicin administration. Cardiac function tests (PV-Loop assessment) were performed under anaesthesia (isoflurane in O2 (FiO2 100%)) followed by orotracheal intubation. The rats were placed in a mechanical rodent ventilator (Harvard Apparatus, Holliston, Massachusetts) with tidal volume of 10 mL/kg and 70 breaths per minute. A small window was opened below the sternum and with a small incision a 2F microtip pressure-conductance catheter (SPR-838; Millar Instruments, Houston, Tx) was inserted directly on the left ventricle (LV) through the apex. After stabilization, signals were recorded with a pressure-volume conductance System ([…]-Ultra, Millar Instruments, Houston, Tx) connected to a data acquisition system (PowerLab, AD Instruments, Colorado Springs, Co). […] Volume calibration was performed with fresh heparinized warm blood from each animal. Also, […] of 7.5% hypertonic saline was injected at the end of each experiment for the parallel conductance volume calibration. Data is analysed in GraphPad Prism 8.0 (GraphPad Software Inc, Ca). All results are expressed as mean±S.D. (standard deviation) or median and interquartile interval. The difference between groups was assessed by ANOVA followed by pairwise comparisons to the sham and vehicle treatment groups with p-values adjusted for multiple comparisons using FDR correction.

[5] = therapeutic (after 6th doxorubicin)

## Cc1c(C)c2c(c(C)c1O)CC[C@](C)(C(=O)N1CCNCC1)O2 [SUL-150, (R)-(6-hydroxy-2,5,7,8-tetramethylchroman-2-yl)(piperazin-1-yl)methanone]
[1]
  Cardiac lipid peroxidation products (TBARS), FIG. 5A: mitigates cardiac lipid peroxidation
[2]
  Cardiac radical scavenging activity, FIG. 5B: remained unaltered
[3]; H9C2 cardiomyoblasts co-incubated with doxorubicin and SUL-150, both 1 μM for 24 h
  Respiratory complex IV activity, FIG. 7: maintains complex IV activity
[3]; untreated control H9C2 cardiomyoblasts, SUL-150 1 μM for 24 h
  Respiratory complex IV activity: does not alter the activity of respiratory complex IV
[4]; SUL-150 in diet (approx. 5 mg per day) as prophylaxis, prior to 1st doxorubicin
  ESP (End-systolic pressure): 104.4 ± 12.3 mmHg
[4]; SUL-150 in diet (approx. 5 mg per day) as therapy, after 6th doxorubicin
  ESP (End-systolic pressure): 114.3 ± 18.4 mmHg
[4]; prophylaxis
  Contractility efficiency: 53.0 ± 16.4 %
  EDP (end-diastolic pressure): 8.1 ± 3.0 mmHg
  EDV (end-diastolic volume): 325.0 ± 144^ μl
  ESV (end-systolic volume): 175.3 ± 107^ μl
  Ea (Arterial elastance): 0.7 ± 0.2 mmHg · μl−1
  Ees (ESPVR) end-systolic elastance: 0.7 ± 0.6 mmHg · μl−1
  Emax (EDPVR) maximal elastance: 0.04 ± 0.03 mmHg · μl−1
  PRSW (preload recruitable stroke work): 9.9 ± 4.0 mmHg · ml−1
  SV (stroke volume): 149.7 ± 55.† μl
  Tau (time constant of LV pressure decay): 12.5 ± 3.1
  dP/dTmax: 6144 ± 1782 mmHg · s−1
  dP/dTmin: −5006 ± 1140 mmHg · s−1
[4]; [5]
  Contractility efficiency: 47.1 ± 18.1 %
  EDP (end-diastolic pressure): 7.4 ± 3.7 mmHg
  EDV (end-diastolic volume): 363.1 ± 115^ μl
  ESV (end-systolic volume): 205.0 ± 96.4 µL
  Ea (Arterial elastance): 0.7 ± 0.2 mmHg · μl−1
  Ees (ESPVR) end-systolic elastance: 0.5 ± 0.4 mmHg · μl−1
  Emax (EDPVR) maximal elastance: 0.03 ± 0.02 mmHg · μl−1
  PRSW (preload recruitable stroke work): 11.0 ± 3.9 mmHg · ml−1
  SV (stroke volume): 158.1 ± 55.† μl
  Tau (time constant of LV pressure decay): 13.6 ± 5.2
  dP/dTmax: 6487 ± 1665 mmHg · s−1
  dP/dTmin: −5092 ± 1447 mmHg · s−1
[4]; SUL-150 via food pellets after 6 cumulative doxorubicin administrations (therapeutic group)
  Cardiac function (heart rate, ejection fraction, stroke work, cardiac output), FIG. 1: substantially improves the cardiac function
[4]; SUL-150 via food pellets prior to doxorubicin (prophylaxis group)
  Cardiac function (heart rate, ejection fraction, stroke work, cardiac output), FIG. 1: substantially preserves cardiac function and largely maintains ejection fraction and cardiac output
